Assay results published in PubChem BioAssay (NCI).
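Results reflect a 48-hour exposure of cells in 96-well plates to compound at five concentrations. TGI is the concentration that stops growth completely.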

Experiments:
Assay in all cases: NCI-60 cell line screen, 48 h
SK-MEL-28 melanoma = tested on: SK-MEL-28 melanoma
TK-10 renal = tested on: TK-10 renal
RPMI-8226 leukemia = tested on: RPMI-8226 leukemia
CAKI-1 renal = tested on: CAKI-1 renal
DU-145 prostate = tested on: DU-145 prostate
COLO 205 colon = tested on: COLO 205 colon
MDA-MB-231 breast = tested on: MDA-MB-231 breast
HT29 colon = tested on: HT29 colon
SF-539 CNS = tested on: SF-539 CNS
UO-31 renal = tested on: UO-31 renal
SK-MEL-2 melanoma = tested on: SK-MEL-2 melanoma
NCI-H522 lung = tested on: NCI-H522 lung
HCC-2998 colon = tested on: HCC-2998 colon
HCT-15 colon = tested on: HCT-15 colon
MDA-N = tested on: MDA-N
SR leukemia = tested on: SR leukemia
IGROV1 ovarian = tested on: IGROV1 ovarian
OVCAR-8 ovarian = tested on: OVCAR-8 ovarian
RXF 393 renal = tested on: RXF 393 renal
PC-3 prostate = tested on: PC-3 prostate
786-0 renal = tested on: 786-0 renal
OVCAR-3 ovarian = tested on: OVCAR-3 ovarian
U251 CNS = tested on: U251 CNS
NCI-H226 lung = tested on: NCI-H226 lung
NCI-H23 lung = tested on: NCI-H23 lung
CCRF-CEM leukemia = tested on: CCRF-CEM leukemia
HOP-92 NSCLC = tested on: HOP-92 NSCLC
SK-MEL-5 melanoma = tested on: SK-MEL-5 melanoma
LOX IMVI melanoma = tested on: LOX IMVI melanoma
HL-60(TB) leukemia = tested on: HL-60(TB) leukemia
SF-295 CNS = tested on: SF-295 CNS
BT-549 breast = tested on: BT-549 breast
UACC-257 melanoma = tested on: UACC-257 melanoma
MALME-3M melanoma = tested on: MALME-3M melanoma
SNB-19 CNS = tested on: SNB-19 CNS
MOLT-4 leukemia = tested on: MOLT-4 leukemia
A549 NSCLC = tested on: A549 NSCLC
SNB-75 CNS = tested on: SNB-75 CNS
OVCAR-4 ovarian = tested on: OVCAR-4 ovarian
ACHN renal = tested on: ACHN renal
SW-620 colon = tested on: SW-620 colon
HOP-62 NSCLC = tested on: HOP-62 NSCLC
MCF7 breast = tested on: MCF7 breast
OVCAR-5 ovarian = tested on: OVCAR-5 ovarian
K-562 leukemia = tested on: K-562 leukemia
MDA-MB-435 = tested on: MDA-MB-435
M14 melanoma = tested on: M14 melanoma
SN12C renal = tested on: SN12C renal
KM12 colon = tested on: KM12 colon
HS 578T breast = tested on: HS 578T breast
EKVX NSCLC = tested on: EKVX NSCLC
HCT-116 colon = tested on: HCT-116 colon
SF-268 CNS = tested on: SF-268 CNS
UACC-62 melanoma = tested on: UACC-62 melanoma
A498 renal = tested on: A498 renal
NCI/ADR-RES ovarian = tested on: NCI/ADR-RES ovarian
SK-OV-3 ovarian = tested on: SK-OV-3 ovarian
NCI-H460 lung = tested on: NCI-H460 lung

Measured: TGI

CC(=O)OCCOCn1c2c(c(=O)[nH]c1=O)CCC2
not listed: UACC-62 melanoma | A498 renal | NCI/ADR-RES ovarian | SK-OV-3 ovarian | NCI-H460 lung
> 100 µM: all other assays above

O=CC1=C(C(=O)OC(c2ccccc2)c2ccccc2)N2C(=O)[C@@H](NC(=O)Cc3cccs3)[C@H]2SC1
not listed: SK-MEL-28 melanoma | HT29 colon | BT-549 breast | SNB-19 CNS | HOP-62 NSCLC | HS 578T breast | SF-268 CNS
> 100 µM: all other assays above
